Several values for one entry are separate records, joined by “and”; a condition that tells them apart may be missing. Identical values can stand only once. Like-named read-outs stand apart in the source and are kept apart here.
Key:
[1] = Excretion in urine and feces, rats; assay type: in vivo; conditions: rat; over 24 hours
Protocol: The excretion of SRA737 has been studied in mice and rats administered SRA737 at either 5 mg/kg IV or 10 mg/kg orally. Urine and feces were collected for a 24-hour period after dosing. In mice, renal excretion of intact SRA737 was consistently low (less than 10% of dose) after both oral and IV administration. Following IV administration of SRA737, less than 8% of the dose was recovered as intact drug in the feces while after oral administration this figure was less than 3%. Excretion of intact SRA737 was lower in the rat than in the mouse with <1% of dose excreted renally over 24 hours and less than 1.5% of dose excreted into the feces over 24 hours.

[2] = GLP 28-day repeat oral dose toxicity and toxicokinetics, minipig; assay type: in vivo
From the text: Reference source not found.6.

[3] = Plasma protein binding, ultracentrifugation, minipig; assay type: in vitro ADME; conditions: for Percentage Bound / Percentage Free: Minipig plasma
Protocol: The PK of SRA737 have been determined in the mouse, rat, dog and monkey following oral and IV administration (Table 3). […] An acceptable terminal elimination t1/2 was also observed in each species. […] The plasma protein binding of SRA737 at 1 and 10 μM was examined in mouse, minipig, monkey and human plasma using ultracentrifugation and in dog plasma (10 μM) using rapid equilibrium dialysis.

[4] = test system: HGSOC PDX models harboring CCNE1 amplifications accompanied by TP53 mutations; assay: In vivo efficacy, HGSOC PDX models with CCNE1 amplifications; design: species or system mouse; conditions: single agent; several models; data not shown
Protocol: (§1) A program of in vivo efficacy studies was performed to assess the activity of SRA737 in combination with genotoxic chemotherapy and targeted agents, and as monotherapy.
(§2) One of these models also carried a MYCN amplification. A fourth HGSOC PDX model with partial resistance to PARPi was also sensitive to high dose SRA737 monotherapy.

[5] = Caco-2 permeability assay; assay type: in vitro ADME; conditions: human
Protocol: The membrane permeability of SRA737 was assessed in the parallel artificial membrane permeability assay (PAMPA) and Caco-2 assays. Permeability in the PAMPA assay was classified as low.

CYP 1A2 = CYP 1A2 (Homo sapiens, UniProt P05177); assay: CYP inhibition, 1A2; assay type: in vitro ADME; conditions: highest concentration investigated
CYP 1A2, sequence (P05177 whole entry): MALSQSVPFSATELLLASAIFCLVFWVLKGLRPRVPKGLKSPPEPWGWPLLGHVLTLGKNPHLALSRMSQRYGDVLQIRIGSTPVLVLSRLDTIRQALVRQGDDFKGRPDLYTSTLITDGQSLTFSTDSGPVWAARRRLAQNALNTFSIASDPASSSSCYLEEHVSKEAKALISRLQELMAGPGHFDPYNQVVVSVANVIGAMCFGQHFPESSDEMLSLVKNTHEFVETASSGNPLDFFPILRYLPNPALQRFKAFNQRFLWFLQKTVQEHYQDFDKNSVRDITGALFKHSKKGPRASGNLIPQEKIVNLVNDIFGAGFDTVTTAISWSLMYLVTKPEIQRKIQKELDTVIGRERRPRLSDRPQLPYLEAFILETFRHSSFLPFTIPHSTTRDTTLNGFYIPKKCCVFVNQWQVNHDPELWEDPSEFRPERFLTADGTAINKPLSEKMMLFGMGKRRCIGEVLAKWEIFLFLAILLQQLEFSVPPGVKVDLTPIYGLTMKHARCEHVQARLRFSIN

Calu6 human (NSCLC) = assay: In vivo efficacy, Calu6 xenograft model; design: species or system mouse; conditions: data not shown
Protocol: as §1, §2

CYP 2C19 = CYP 2C19 (Homo sapiens, UniProt P33261); assay: CYP inhibition, 2C19; assay type: in vitro ADME; conditions: highest concentration investigated
CYP 2C19, sequence (P33261 whole entry): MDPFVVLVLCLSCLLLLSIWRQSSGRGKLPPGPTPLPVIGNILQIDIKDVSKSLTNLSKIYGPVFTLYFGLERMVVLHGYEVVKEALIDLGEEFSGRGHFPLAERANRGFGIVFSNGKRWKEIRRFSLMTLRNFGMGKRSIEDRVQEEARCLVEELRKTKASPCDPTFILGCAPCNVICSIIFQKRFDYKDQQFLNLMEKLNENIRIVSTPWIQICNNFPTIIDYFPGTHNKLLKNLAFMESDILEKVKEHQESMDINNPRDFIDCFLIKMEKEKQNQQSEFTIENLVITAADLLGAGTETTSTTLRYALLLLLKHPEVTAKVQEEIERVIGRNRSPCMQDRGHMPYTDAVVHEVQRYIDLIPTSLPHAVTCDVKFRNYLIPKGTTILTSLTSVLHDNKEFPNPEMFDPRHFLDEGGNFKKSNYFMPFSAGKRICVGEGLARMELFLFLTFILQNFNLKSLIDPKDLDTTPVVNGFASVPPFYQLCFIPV

[6] = mouse, in vivo, po
[7] = test system: HGSOC PDX model with partial resistance to PARPi; assay: In vivo efficacy, HGSOC PDX model with partial resistance to PARPi; design: species or system mouse; conditions: high dose SRA737 monotherapy
Protocol: as §1, §2

MDA-MB-231 model of TNBC = assay: In vivo efficacy, MDA-MB-231 model; design: species or system mouse; conditions: data not shown
Protocol: as §1, §2

mTmG = assay: In vivo efficacy, mTmG syngeneic mouse model; conditions: in combination with a PD1/PD-L1 inhibitor; data not shown
Protocol: as §1, §2

HT29 human colon cancer = assay: In vivo efficacy, HT29 xenograft model; design: species or system mouse; conditions: data not shown
Protocol: as §1, §2

MOLM-13 model of AML = assay: In vivo efficacy, MOLM-13 model; design: species or system mouse; conditions: data not shown
Protocol: as §1, §2

[8] = SRA737 plasma and tumor concentrations in HT29 xenograft model; assay type: in vivo, mouse; design: Tumor (6 h) concentration / Tumor (24 h) concentration: unit not given here; conditions: for concentration at 6 h / concentration at 24 h: plasma
Protocol: For each dose, columns from left to right are concentrations for plasma at 6 hours, plasma at 24 hours, tumor at 6 hours, and tumor at 24 hours, respectively.
The effect of SRA737 on Gemcitabine induced CHK1 S296 autophosphorylation was assessed as described in Walton et al. (Oncotarget. 2016 Jan. 19; 7(3): 2329-2342), herein incorporated by reference for all it teaches. Briefly, mice bearing HT29 tumor xenografts were administered (i) vehicle control or (ii) gemcitabine (100 mg/kg in saline, IV) or (iii) a combination of SRA737 ([…]) and gemcitabine (100 mg/kg) with SRA737 administered 24 hours following gemcitabine administration (n=3 per time point per treatment). […] Exposure in the tumor was greater than 10-fold higher than in plasma. The circulating plasma concentration at this 24-hour timepoint corresponded to a free drug concentration of approximately 6 nM (2 ng/mL) based on plasma protein binding in mice of 94%.

SW620 mouse colon cancer = assay: In vivo efficacy, SW620 xenograft model; conditions: in combination with standard-dose gemcitabine; data not shown
Protocol: as §1, §2

[9] = test system: Eμ-Myc model of B-cell lymphoma; assay: In vivo efficacy, Eμ-Myc model; design: species or system mouse; conditions: data not shown
Protocol: as §1, §2

[10] = in vivo, po, Minipig Female, 10 mg/kg/day (HNSTD), daily dosing for 28 days
[11] = in vivo, po, Minipig Female, 40 mg/kg/day, daily dosing for 28 days
[12] = in vivo, po, Minipig Female, 75 mg/kg/day, daily dosing for 28 days
[13] = in vivo, po, Minipig Male, 10 mg/kg/day (HNSTD), daily dosing for 28 days
[14] = in vivo, po, Minipig Male, 40 mg/kg/day, daily dosing for 28 days
[15] = in combination with standard-dose gemcitabine

**Q.** Which results are given for `N#Cc1cnc(Nc2cc(NCC3CNCCO3)c(C(F)(F)F)cn2)cn1` (stereo not shown) [SRA737, 5-[[4-[[morpholin-2-yl]methylamino]-5-(trifluoromethyl)-2-pyridyl]amino]pyrazine-2-carbonitrile]?
**A.** intact SRA737 excreted into the feces [1]: less than 1.5 % of dose; intact SRA737 excreted renally [1]: < 1 % of dose; AUC(0-t) [2, 10]: 6560 ng·h/mL; Cmax [2, 10]: 515 ng/mL; half-life [2, 10]: 13.6 h; AUC(0-t) [2, 11]: 45500 ng·h/mL; Cmax [2, 11]: 2830 ng/mL; half-life [2, 11]: 14.3 h; AUC(0-t) [2, 12]: 97000 ng·h/mL; Cmax [2, 12]: 5340 ng/mL; half-life [2, 12]: 31.5 h; AUC(0-t) [2, 13]: 6480 ng·h/mL; Cmax [2, 13]: 622 ng/mL; half-life [2, 13]: 9.25 h; AUC(0-t) [2, 14]: 22200 ng·h/mL; Cmax at 28 days [2, 14]: 2070 ng/mL; half-life [2, 14]: 7.66 h; toxicological findings ([2]; minipig pivotal study, dose-dependent, reversible on cessation): bone marrow toxicity; Percentage Bound ([3]; 1 μM): 85.2%; Percentage Free ([3]; 1 μM): 14.9%; Percentage Bound ([3]; 10 μM): 75.5%; Percentage Free ([3]; 10 μM): 24.5%; fraction unbound ([3]; plasma, minipig, summary of 1 and 10 μM): ~0.2; antitumor activity [4]: Significant antitumor activity; Papp at 10 μM [5]: 20.7 ± 9.1 ×10⁻⁶ cm/s; efflux ratio at 10 μM ([5]; read-out: efflux ratio (A>B/B>A)): 0.8; IC50 (CYP 1A2): 10 to 50 µM; antitumor activity (Calu6 human (NSCLC); [15]): Significant, dose-dependent antitumor activity; synergy (Calu6 human (NSCLC); with gemcitabine and carboplatin): Synergy; IC50 (CYP 2C19): 10 to 50 µM; MTD [6]: 225 mg/m^2/day; sensitivity to SRA737 [7]: sensitive; single agent efficacy (MDA-MB-231 model of TNBC): single agent efficacy; antitumor activity (mTmG): Significant antitumor activity; antitumor activity (HT29 human colon cancer; [15]): Significant, dose-dependent antitumor activity; synergy (HT29 human colon cancer; with irinotecan): Synergy; synergy (HT29 human colon cancer; with low-dose gemcitabine): Synergy; single agent efficacy (MOLM-13 model of AML): single agent efficacy; Tumor (6 h) concentration ([8]; 3.125 mg/kg): 3183.276; Tumor (24 h) concentration ([8]; 3.125 mg/kg): 645.7623; Tumor (6 h) concentration ([8]; 6.25 mg/kg): 4011.501; Tumor (24 h) concentration ([8]; 6.25 mg/kg): 965.7797; Tumor (6 h) concentration ([8]; 12.5 mg/kg): 19009.57; Tumor (24 h) concentration ([8]; 12.5 mg/kg): 3974.933; Tumor (6 h) concentration ([8]; 25 mg/kg): 37516; Tumor (24 h) concentration ([8]; 25 mg/kg): 16289.53; Tumor (6 h) concentration ([8]; 50 mg/kg): 76331.2; Tumor (24 h) concentration ([8]; 50 mg/kg): 27483.73; Tumor (6 h) concentration ([8]; 100 mg/kg): 131506.7; Tumor (24 h) concentration ([8]; 100 mg/kg): 101764.1; concentration at 6 h ([8]; mouse, oral, 3.125 mg/kg): 194 nM; concentration at 24 h ([8]; mouse, oral, 3.125 mg/kg, read-out: Plasma (24 h) concentration): 0 nM; concentration at 6 h ([8]; mouse, oral, 6.25 mg/kg): 323 nM; concentration at 24 h ([8]; mouse, oral, 6.25 mg/kg, read-out: Plasma (24 h) concentration): 13.1 nM; concentration at 24 h ([8]; mouse, oral, 12.5 mg/kg, 24-hour timepoint, based on plasma protein binding in mice of 94%, read-out: free drug concentration in plasma): ~6 nM and ~2 ng/mL; concentration at 24 h ([8]; mouse, oral, 12.5 mg/kg, at 24 hours, approximate, read-out: minimum (total) plasma concentration corresponding to inhibition of pS296 Chk1): ~100 nM; concentration at 24 h ([8]; mouse, oral, 12.5 mg/kg, at 24 hours, read-out: minimum (total) plasma concentration corresponding to inhibition of pS296 Chk1): ~40 ng/mL; concentration at 24 h ([8]; mouse, oral, 12.5 mg/kg, read-out: Plasma (24 h) concentration): 78 ± 27 nM; Kp ([8]; mouse, tumor, oral, HT29 xenograft mice, read-out: exposure in the tumor relative to plasma): > 10; antitumor activity (SW620 mouse colon cancer): Significant, dose-dependent antitumor activity; single agent efficacy [9]: single agent efficacy

— US20200397796A1, “METHODS OF TREATMENT OF CANCER COMPRISING CHK1 INHIBITORS” (SIERRA ONCOLOGY, INC., priority 2018, published 2020)
